According to ChEMBL document CHEMBL5230129, “Antibacterial activities with the structure-activity relationship of coumarin derivatives” (2020):
≈ marks a conversion by molar mass, not a printed value.

How the values were obtained:
Assay type in all cases: functional
[1] = system: Escherichia coli; test: Antibacterial activity against Escherichia coli SM1411 assessed as inhibition of bacterial growth incubated for 24 hrs by two-fold serial dilution method
[2] = system: Escherichia coli; test: Antibacterial activity against Escherichia coli 1411 assessed as inhibition of bacterial growth incubated for 24 hrs by two-fold serial dilution method
[3] = system: Staphylococcus aureus; test: Antibacterial activity against Staphylococcus aureus assessed as inhibition of bacterial growth by broth dilution assay
[4] = system: Bacillus subtilis; test: Antibacterial activity against Bacillus subtilis assessed as inhibition of bacterial growth by broth dilution assay
[5] = system: Bacillus subtilis; test: Antibacterial activity against Bacillus subtilis assessed as zone of inhibition incubated for 3 days by cup plate agar diffusion assay; details: time 3 day
[6] = system: Pseudomonas aeruginosa; test: Antibacterial activity against Pseudomonas aeruginosa assessed as zone of inhibition incubated for 3 days by cup plate agar diffusion assay; details: time 3 day
[7] = system: Staphylococcus aureus; test: Antibacterial activity against Staphylococcus aureus assessed as zone of inhibition incubated for 3 days by cup plate agar diffusion assay; details: time 3 day
[8] = system: Escherichia coli; test: Antibacterial activity against Escherichia coli assessed as zone of inhibition incubated for 3 days by cup plate agar diffusion assay; details: time 3 day
[9] = system: Pseudomonas fluorescens; test: Antibacterial activity against Pseudomonas fluorescens NCIM 2173 assessed as inhibition of bacterial growth incubated for 24 hrs by serial twofold dilution assay
[10] = system: Sphingomonas paucimobilis; test: Antibacterial activity against Flavobacterium devorans ATCC 10829 assessed as inhibition of bacterial growth incubated for 24 hrs by serial twofold dilution assay
[11] = system: Escherichia coli; test: Antibacterial activity against Escherichia coli NCIM 2256 assessed as inhibition of bacterial growth incubated for 24 hrs by serial twofold dilution assay
[12] = system: Escherichia coli; test: Antibacterial activity against Escherichia coli MTCC 40 assessed as zone of inhibition incubated for 24 hrs by well-plate method
[13] = system: Enterococcus faecalis; test: Antibacterial activity against Enterococcus faecalis PCM 2673 assessed as inhibition of bacterial growth incubated for 24 hrs by microbroth dilution assay
[14] = system: Escherichia coli; test: Antibacterial activity against Escherichia coli ATCC 8739 assessed as inhibition of bacterial growth incubated for 24 hrs by microbroth dilution assay
[15] = system: Escherichia coli; test: Antibacterial activity against Escherichia coli MTCC 443 assessed as inhibition of bacterial growth incubated for 18 to 20 hrs by broth microdilution assay; details: time 18-20 hrs
[16] = system: Staphylococcus aureus; test: Antibacterial activity against Staphylococcus aureus MTCC 96 assessed as inhibition of bacterial growth incubated for 18 to 20 hrs by broth microdilution assay; details: time 18-20 hrs
[17] = system: Pseudomonas; test: Antibacterial activity against Pseudomonas assessed as zone of inhibition
[18] = system: Bacillus; test: Antibacterial activity against Bacillus assessed as inhibition of bacterial growth by broth micro dilution assay
[19] = system: Escherichia coli; test: Antibacterial activity against Escherichia coli assessed as inhibition of bacterial growth by broth micro dilution assay
[20] = system: Staphylococcus aureus; test: Antibacterial activity against Staphylococcus aureus assessed as inhibition of bacterial growth by broth micro dilution assay
[21] = system: Pseudomonas aeruginosa; test: Antibacterial activity against Pseudomonas aeruginosa ATCC 27853 assessed as zone of inhibition incubated for 24 hrs by paper disk method
[22] = system: Escherichia coli; test: Antibacterial activity against Escherichia coli ATCC 25922 assessed as zone of inhibition incubated for 24 hrs by paper disk method
[23] = system: Klebsiella pneumoniae; test: Antibacterial activity against Klebsiella pneumoniae assessed as zone of inhibition incubated for 24 hrs by disk diffusion assay

**Q.** How did the MIC [1] turn out when `O=c1oc2ccccc2cc1C1=NNC(c2ccc(Br)cc2)C1` (stereo not drawn) was run?
**A.** > 70 µg/mL

**Q.** And the MIC [2]?
**A.** > 70 µg/mL

**Q.** Which MIC [3] does the source give for `Cc1ccc2oc(-c3cc4ccccc4oc3=O)cc2c1` here?
**A.** 0.2 µg/mL (≈ 0.724 µM)

**Q.** And the MIC [4]?
**A.** 0.4 µg/mL (≈ 1.45 µM)

**Q.** How did the “inhibition zone (IZ)” value [5] turn out when `Cc1ccc(/C=C/C(=O)c2c(OCc3cnnn3Cc3ccccc3)ccc3c(C)cc(=O)oc23)cc1` was run?
**A.** 6 mm

**Q.** What about the “inhibition zone (IZ)” value [6] of the same compound?
**A.** 7 mm

**Q.** And the “inhibition zone (IZ)” value [7]?
**A.** 17 mm

**Q.** And the “inhibition zone (IZ)” value [8]?
**A.** 14 mm

**Q.** `Cc1cc(OCc2cn(Cc3ccc(Cl)cc3)nn2)cc2oc(=O)ccc12` was tested. Which MIC [9] did it give?
**A.** 2 µg/mL (≈ 5.24 µM)

**Q.** And the MIC [10]?
**A.** 2 µg/mL (≈ 5.24 µM)

**Q.** And the MIC [11]?
**A.** 2 µg/mL (≈ 5.24 µM)

**Q.** For `O=c1oc2ccccc2cc1-c1nn(-c2ccccc2)cc1/C=N/Nc1nc(-c2ccccc2)cs1`, which “inhibition zone (IZ)” value [12] is on record?
**A.** 19 mm

**Q.** Which results are given for `O=c1cc(OCc2cn(-c3ccc(F)cc3)nn2)c2ccccc2o1`?
**A.** MIC [13]: 400 µg/mL (≈ 1190 µM); MIC [14]: 1600 µg/mL (≈ 4740 µM)

**Q.** Which MIC [15] does the source give for `Cc1cc(=O)oc2cc(OC(=O)CNC3N=C(c4ccc(F)cc4)C=C(c4ccc(O)cc4)S3)c([N+](=O)[O-])cc12` (stereo not drawn) here?
**A.** 250 µg/mL (≈ 445 µM)

**Q.** What about the MIC [16] of the same compound?
**A.** 250 µg/mL (≈ 445 µM)

**Q.** For `O=c1cc(-c2nc3ccccc3[nH]2)c2cc(Cl)ccc2o1`, which inhibition zone (IZ) [17] is on record?
**A.** 8 mm

**Q.** Which results are given for `Cc1cc(=O)oc2cc(OC(=O)CNC3N=C(c4ccc(F)cc4)C=C(c4cccc(Br)c4)S3)c([N+](=O)[O-])cc12` (stereo not drawn)?
**A.** MIC [15]: 500 µg/mL (≈ 801 µM); MIC [16]: 100 µg/mL (≈ 160 µM)

**Q.** With `Cc1cc(C)c2c(C3NNC(=O)N3)cc(=O)oc2c1` (stereo not drawn) as the compound, how does the MIC [18] read?
**A.** 6.25 µg/mL (≈ 24.1 µM)

**Q.** What about the MIC [19] of the same compound?
**A.** 50 µg/mL (≈ 193 µM)

**Q.** And the MIC [20]?
**A.** 6.25 µg/mL (≈ 24.1 µM)

**Q.** Which “inhibition zone (IZ)” value [5] does the source give for `COc1cc(/C=C/C(=O)c2c(OCc3cnnn3Cc3ccccc3)ccc3c(C)cc(=O)oc23)cc(OC)c1OC` here?
**A.** 15 mm

**Q.** And the “inhibition zone (IZ)” value [6]?
**A.** 14 mm

**Q.** What about the “inhibition zone (IZ)” value [7] of the same compound?
**A.** 35 mm

**Q.** What about the “inhibition zone (IZ)” value [8] of the same compound?
**A.** 33 mm

**Q.** Which MIC [15] does the source give for `Cc1cc(=O)oc2cc(OC(=O)CNC3N=C(c4ccc(F)cc4)C=C(c4cccc(Oc5ccccc5)c4)S3)c([N+](=O)[O-])cc12` (stereo not drawn) here?
**A.** 250 µg/mL (≈ 392 µM)

**Q.** What about the MIC [16] of the same compound?
**A.** 200 µg/mL (≈ 314 µM)

**Q.** Which results are given for `COc1ccc2c(C3NNC(=O)N3)cc(=O)oc2c1` (stereo not drawn)?
**A.** MIC [18]: 3.12 µg/mL (≈ 11.9 µM); MIC [19]: 1.6 µg/mL (≈ 6.12 µM); MIC [20]: 0.8 µg/mL (≈ 3.06 µM)

**Q.** `Cc1ccc2c(C3NNC(=O)N3)cc(=O)oc2c1C` (stereo not drawn) was tested. Which MIC [18] did it give?
**A.** 3.12 µg/mL (≈ 12 µM)

**Q.** What about the MIC [19] of the same compound?
**A.** 25 µg/mL (≈ 96.4 µM)

**Q.** What about the MIC [20] of the same compound?
**A.** 12.6 µg/mL (≈ 48.6 µM)

**Q.** With `C[C@@H](NC(=O)COc1cc(=O)oc2ccccc12)c1ccccc1` as the compound, how does the “inhibition zone (IZ)” value [21] read?
**A.** 10 mm

**Q.** What about the “inhibition zone (IZ)” value [22] of the same compound?
**A.** 12 mm

**Q.** Which MIC [1] does the source give for `O=c1oc2ccccc2cc1C1=NNC(c2ccc(-c3ccccc3)c(-c3ccccc3)c2)C1` (stereo not drawn) here?
**A.** > 70 µg/mL

**Q.** What about the MIC [2] of the same compound?
**A.** > 70 µg/mL

**Q.** Which results are given for `COc1ccc(/C=C/C(=O)c2c(OCc3cnnn3Cc3ccccc3)ccc3c(C)cc(=O)oc23)cc1OC`?
**A.** inhibition zone (IZ) [5]: 13 mm; inhibition zone (IZ) [6]: 11 mm; inhibition zone (IZ) [7]: 32 mm; inhibition zone (IZ) [8]: 31 mm

**Q.** What does the source list for `O=C(N[C@H](CO)[C@H](O)c1ccc([N+](=O)[O-])cc1)C(Cl)Cl` [CHLORAMPHENICOL]?
**A.** MIC [9]: 2 µg/mL (≈ 6.19 µM); MIC [13]: 5 µg/mL (≈ 15.5 µM); MIC [10]: 2 µg/mL (≈ 6.19 µM); MIC [15]: 50 µg/mL (≈ 155 µM); MIC [14]: 1.2 µg/mL (≈ 3.71 µM); MIC [11]: 2 µg/mL (≈ 6.19 µM); MIC [16]: 50 µg/mL (≈ 155 µM)

**Q.** With `COc1ccc(-n2cc(COc3cc(=O)oc4ccccc34)nn2)cc1F` as the compound, how does the MIC [13] read?
**A.** 100 µg/mL (≈ 272 µM)

**Q.** And the MIC [14]?
**A.** 200 µg/mL (≈ 544 µM)

**Q.** With GENTAMICIN as the compound, how does the inhibition zone (IZ) [23] read?
**A.** 16 mm

**Q.** `O=c1cc(OCc2cn(-c3cccc([N+](=O)[O-])c3)nn2)c2ccccc2o1` was tested. Which MIC [13] did it give?
**A.** 400 µg/mL (≈ 1100 µM)

**Q.** What about the MIC [14] of the same compound?
**A.** 1600 µg/mL (≈ 4390 µM)

**Q.** Which results are given for `O=c1oc2ccc(Br)cc2cc1-c1cc2ccc3ccccc3c2o1`?
**A.** MIC [3]: 0.2 µg/mL (≈ 0.511 µM); MIC [4]: 0.8 µg/mL (≈ 2.04 µM)

**Q.** With `Cc1cc(OCc2cn(Cc3ccc(Br)cc3)nn2)cc2oc(=O)ccc12` as the compound, how does the MIC [9] read?
**A.** 4 µg/mL (≈ 9.38 µM)

**Q.** What about the MIC [10] of the same compound?
**A.** 2 µg/mL (≈ 4.69 µM)

**Q.** And the MIC [11]?
**A.** 4 µg/mL (≈ 9.38 µM)

**Q.** With `O=c1oc2ccccc2cc1C1=NNC(c2ccc(F)cc2)C1` (stereo not drawn) as the compound, how does the MIC [1] read?
**A.** > 70 µg/mL

**Q.** And the MIC [2]?
**A.** > 70 µg/mL

**Q.** Which MIC [15] does the source give for `Cc1cc(=O)oc2cc(OC(=O)CNC3N=C(c4ccc(F)cc4)C=C(c4ccc(F)cc4)S3)c([N+](=O)[O-])cc12` (stereo not drawn) here?
**A.** 200 µg/mL (≈ 355 µM)

**Q.** And the MIC [16]?
**A.** 125 µg/mL (≈ 222 µM)

**Q.** What does the source list for `N[C@@H]1CONC1=O` [CYCLOSERINE]?
**A.** MIC [1]: 16 µg/mL (≈ 157 µM); MIC [2]: 16 µg/mL (≈ 157 µM)

**Q.** How did the MIC [18] turn out when `Cc1ccc2c(C3NNC(=O)N3)cc(=O)oc2c1` (stereo not drawn) was run?
**A.** 1.6 µg/mL (≈ 6.52 µM)

**Q.** And the MIC [19]?
**A.** 1.6 µg/mL (≈ 6.52 µM)

**Q.** What about the MIC [20] of the same compound?
**A.** 1.6 µg/mL (≈ 6.52 µM)

**Q.** With `Cc1cc(=O)oc2c(C(=O)/C=C/c3ccc(Cl)cc3)c(OCc3cnnn3Cc3ccccc3)ccc12` as the compound, how does the “inhibition zone (IZ)” value [5] read?
**A.** 10 mm

**Q.** And the “inhibition zone (IZ)” value [6]?
**A.** 8 mm

**Q.** And the “inhibition zone (IZ)” value [7]?
**A.** 25 mm

**Q.** What about the “inhibition zone (IZ)” value [8] of the same compound?
**A.** 23 mm

**Q.** What does the source list for `COc1ccc(/C=C/C(=O)c2c(OCc3cnnn3Cc3ccccc3)ccc3c(C)cc(=O)oc23)cc1`?
**A.** inhibition zone (IZ) [5]: 11 mm; inhibition zone (IZ) [6]: 9 mm; inhibition zone (IZ) [7]: 28 mm; inhibition zone (IZ) [8]: 28 mm

**Q.** How did the MIC [15] turn out when `Cc1cc(=O)oc2cc(OC(=O)CNC3N=C(c4ccc(F)cc4)C=C(c4ccc(Cl)cc4)S3)c([N+](=O)[O-])cc12` (stereo not drawn) was run?
**A.** 50 µg/mL (≈ 86.2 µM)

**Q.** What about the MIC [16] of the same compound?
**A.** 250 µg/mL (≈ 431 µM)
